These are literature values, as cited in patent US20060287500A1, “Method for synthesis of C2-symmetric diamino diol mediated by titanium complexes” (priority 2005, published 2006).

The subject of data set [1] is FIV. The note with it: feline model.
Data set [2] concerns the target HIV protease (Human immunodeficiency virus type 1 group M subtype B, UniProt P04585). The note with it: in vitro.
Data set [3] relates to HIV, SIV, FIV and many of the 150 different clinical mutant strains.
Data set [4] addresses FIV protease (Feline immunodeficiency virus, UniProt P16088). As to conditions: in vitro.

Consider `CC(C)[C@H](NC(=O)[C@H](C)NC(=O)OCc1ccccc1)C(=O)N[C@@H](Cc1ccccc1)[C@@H](O)[C@H](O)[C@H](Cc1ccccc1)NC(=O)[C@@H](NC(=O)[C@H](C)NC(=O)OCc1ccccc1)C(C)C` [TL-3], for which, in data set [1], the “drug resistance developing against the inhibitor” value is “No evidence for drug resistance developing”. The Ki – broadly, the equilibrium dissociation constant of an inhibitor or competing ligand from its target – in data set [2] is 1.5 nM; in data set [4] it was 41 nM. Further, the “effectiveness against HIV, SIV, FIV and clinical mutant strains” value in data set [3] is listed as “equally effective”.
